# Reference: the supplement of paper PMC10307832
# Legend:
# Assay in all cases: relative viability (nuclei count vs DMSO), 5 days (fraction); higher = more cells survive
# [1] = system: NCI-H2023
# Method in brief: (§1)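 Relative viability equals treated-well nuclei counts divided by vehicle-well nuclei counts. Counts came from 4× images of lung cancer cell lines grown in 1536-well plates for 5 days after pin-tool dosing on the day after seeding. Dosing used one drug alone or a fixed anchor-drug dose plus five library-drug doses (not always all listed) in √10 steps, and values are medians of duplicate plates.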
# [2] = system: A-427
# Method in brief: as §1
# [3] = system: NCI-H1792
# Method in brief: as §1
# [4] = system: LC-2-ad
# Method in brief: as §1
# [5] = system: CAL-12T
# Method in brief: as §1
# [6] = system: NCI-H1734
# Method in brief: as §1
# [7] = system: NCI-H520
# Method in brief: as §1
# [8] = system: NCI-H2347
# Method in brief: as §1
# [9] = system: NCI-H2405
# Method in brief: as §1
# [10] = system: COR-L 105
# Method in brief: as §1
# [11] = system: EPLC-272H
# Method in brief: as §1
# [12] = system: NCI-H1915
# Method in brief: as §1
# [13] = system: NCI-H1395
# Method in brief: as §1
# [14] = system: NCI-H1563
# Method in brief: as §1
# [15] = system: SW 900
# Method in brief: as §1
# [16] = system: HCC-44
# Method in brief: as §1
# [17] = system: NCI-H1975
# Method in brief: as §1
# [18] = system: NCI-H2342
# Method in brief: as §1
# [19] = system: NCI-H838
# Method in brief: as §1
# [20] = system: SW 1573
# Method in brief: as §1
# [21] = system: HCC-15
# Method in brief: as §1
# [22] = system: LCLC-97TM1
# Method in brief: as §1
# [23] = system: UMC-11
# Method in brief: as §1
smiles,measurement,setting,value
CCNC(=O)c1noc(-c2cc(C(C)C)c(O)cc2O)c1-c1ccc(CN2CCOCC2)cc1 [Luminespib] + COc1cccc2cc(-c3nc([C@H]4CC[C@H](C(=O)O)CC4)n4ncnc(N)c34)[nH]c12 [OSI-027] (partner 0.5 µM),relative viability,[1]; first compound 0.002 µM,0.44
same,relative viability,[1]; first compound 0.006325 µM,0.374
same,relative viability,[1]; first compound 0.02 µM,0.131
same,relative viability,[1]; first compound 0.06325 µM,0.0545
same,relative viability,[1]; first compound 0.2 µM,0.0624
same,relative viability,[2]; first compound 0.002 µM,0.462
same,relative viability,[2]; first compound 0.006325 µM,0.396
same,relative viability,[2]; first compound 0.02 µM,0.366
same,relative viability,[2]; first compound 0.06325 µM,0.158
same,relative viability,[2]; first compound 0.2 µM,0.121
same,relative viability,[3]; first compound 0.002 µM,0.637
same,relative viability,[3]; first compound 0.006325 µM,0.618
same,relative viability,[3]; first compound 0.02 µM,0.509
same,relative viability,[3]; first compound 0.06325 µM,0.26
same,relative viability,[3]; first compound 0.2 µM,0.229
same,relative viability,[4]; first compound 0.002 µM,0.806
same,relative viability,[4]; first compound 0.006325 µM,0.822
same,relative viability,[4]; first compound 0.02 µM,0.569
same,relative viability,[4]; first compound 0.06325 µM,0.259
same,relative viability,[4]; first compound 0.2 µM,0.28
same,relative viability,[5]; first compound 0.002 µM,0.799
same,relative viability,[5]; first compound 0.006325 µM,0.63
same,relative viability,[5]; first compound 0.02 µM,0.21
same,relative viability,[5]; first compound 0.06325 µM,0.0898
same,relative viability,[5]; first compound 0.2 µM,0.0995
same,relative viability,[6]; first compound 0.002 µM,0.538
same,relative viability,[6]; first compound 0.006325 µM,0.555
same,relative viability,[6]; first compound 0.02 µM,0.352
same,relative viability,[6]; first compound 0.06325 µM,0.168
same,relative viability,[6]; first compound 0.2 µM,0.156
same,relative viability,[7]; first compound 0.002 µM,0.247
same,relative viability,[7]; first compound 0.006325 µM,0.27
same,relative viability,[7]; first compound 0.02 µM,0.231
same,relative viability,[7]; first compound 0.06325 µM,0.159
same,relative viability,[7]; first compound 0.2 µM,0.158
same,relative viability,[8]; first compound 0.002 µM,0.414
same,relative viability,[8]; first compound 0.006325 µM,0.355
same,relative viability,[8]; first compound 0.02 µM,0.41
same,relative viability,[8]; first compound 0.06325 µM,0.185
same,relative viability,[8]; first compound 0.2 µM,0.227
same,relative viability,[9]; first compound 0.002 µM,0.648
same,relative viability,[9]; first compound 0.006325 µM,0.545
same,relative viability,[9]; first compound 0.02 µM,0.532
same,relative viability,[9]; first compound 0.06325 µM,0.196
same,relative viability,[9]; first compound 0.2 µM,0.192
same,relative viability,[10]; first compound 0.002 µM,0.775
same,relative viability,[10]; first compound 0.006325 µM,0.619
same,relative viability,[10]; first compound 0.02 µM,0.331
same,relative viability,[10]; first compound 0.06325 µM,0.162
same,relative viability,[10]; first compound 0.2 µM,0.176
same,relative viability,[11]; first compound 0.002 µM,0.261
same,relative viability,[11]; first compound 0.006325 µM,0.26
same,relative viability,[11]; first compound 0.06325 µM,0.27
same,relative viability,[11]; first compound 0.2 µM,0.122
same,relative viability,[12]; first compound 0.002 µM,0.596
same,relative viability,[12]; first compound 0.006325 µM,0.502
same,relative viability,[12]; first compound 0.02 µM,0.517
same,relative viability,[12]; first compound 0.06325 µM,0.243
same,relative viability,[12]; first compound 0.2 µM,0.0689
same,relative viability,[13]; first compound 0.002 µM,0.704
same,relative viability,[13]; first compound 0.006325 µM,0.632
same,relative viability,[13]; first compound 0.02 µM,0.512
same,relative viability,[13]; first compound 0.06325 µM,0.337
same,relative viability,[13]; first compound 0.2 µM,0.321
same,relative viability,[14]; first compound 0.002 µM,0.756
same,relative viability,[14]; first compound 0.006325 µM,0.697
same,relative viability,[14]; first compound 0.02 µM,0.585
same,relative viability,[14]; first compound 0.06325 µM,0.473
same,relative viability,[14]; first compound 0.2 µM,0.468
same,relative viability,[15]; first compound 0.002 µM,0.502
same,relative viability,[15]; first compound 0.006325 µM,0.471
same,relative viability,[15]; first compound 0.02 µM,0.131
same,relative viability,[15]; first compound 0.06325 µM,0.0999
same,relative viability,[15]; first compound 0.2 µM,0.0789
same,relative viability,[16]; first compound 0.002 µM,0.484
same,relative viability,[16]; first compound 0.006325 µM,0.554
same,relative viability,[16]; first compound 0.02 µM,0.483
same,relative viability,[16]; first compound 0.06325 µM,0.135
same,relative viability,[16]; first compound 0.2 µM,0.139
same,relative viability,[17]; first compound 0.002 µM,0.746
same,relative viability,[17]; first compound 0.006325 µM,0.677
same,relative viability,[17]; first compound 0.02 µM,0.187
same,relative viability,[17]; first compound 0.06325 µM,0.0795
same,relative viability,[17]; first compound 0.2 µM,0.0958
same,relative viability,[18]; first compound 0.002 µM,0.623
same,relative viability,[18]; first compound 0.006325 µM,0.586
same,relative viability,[18]; first compound 0.02 µM,0.545
same,relative viability,[18]; first compound 0.06325 µM,0.569
same,relative viability,[18]; first compound 0.2 µM,0.397
same,relative viability,[19]; first compound 0.002 µM,0.391
same,relative viability,[19]; first compound 0.006325 µM,0.375
same,relative viability,[19]; first compound 0.02 µM,0.275
same,relative viability,[19]; first compound 0.06325 µM,0.134
same,relative viability,[19]; first compound 0.2 µM,0.149
same,relative viability,[20]; first compound 0.002 µM,0.633
same,relative viability,[20]; first compound 0.006325 µM,0.549
same,relative viability,[20]; first compound 0.02 µM,0.199
same,relative viability,[20]; first compound 0.06325 µM,0.0962
same,relative viability,[20]; first compound 0.2 µM,0.09
same,relative viability,[21]; first compound 0.002 µM,0.686
same,relative viability,[21]; first compound 0.006325 µM,0.644
same,relative viability,[21]; first compound 0.02 µM,0.556
same,relative viability,[21]; first compound 0.06325 µM,0.0983
same,relative viability,[21]; first compound 0.2 µM,0.0973
same,relative viability,[22]; first compound 0.002 µM,0.543
same,relative viability,[22]; first compound 0.006325 µM,0.601
same,relative viability,[22]; first compound 0.02 µM,0.304
same,relative viability,[22]; first compound 0.06325 µM,0.492
same,relative viability,[22]; first compound 0.2 µM,0.114
same,relative viability,[23]; first compound 0.002 µM,0.538
same,relative viability,[23]; first compound 0.006325 µM,0.42
same,relative viability,[23]; first compound 0.02 µM,0.303
same,relative viability,[23]; first compound 0.06325 µM,0.224
same,relative viability,[23]; first compound 0.2 µM,0.207
